# Experimental data from patent US12642786B2, “Methods, compositions and kits for treating multiple sclerosis and other disorders” (The Johns Hopkins University, priority 2018, dated 2026).
# Assays:
# neurospheres = test: Neurospheres, staining for oligodendrocyte marker; assay type: cell-based; conditions: 20 nM every other day for 1 week
# Source text: We examined the effect of bryo-1 on neurospheres, which are neural stem cell-like cells.
# LPS-stimulated BMDCs = test: BMDC cytokine secretion by ELISA; assay type: cell-based, C57BL/6J mice
# Description: BMDCs were generated as described in Lutz, “An advanced culture method for generating large quantities of highly pure dendritic cells from mouse bone marrow,” 1999, J. Immunol. Methods 223:77-92, with minor modifications. Briefly, femurs were removed from 6-10-wk-old female C57BL/6J mice, cut on both ends, and marrow flushed with PBS. Bone marrow cells were then pelleted by centrifugation (500×g for 8 min), resuspended in red blood cell lysis buffer (Sigma) for 1 min, and quenched with excess PBS. After another centrifugation, cells were resuspended in complete RPMI (cRPMI) media consisting of RPMI-1640 with GlutaMAX™ supplement (Thermo Fisher Scientific) supplemented with 10% FBS, penicillin-streptomycin (Gibco), and 50 μM 2-mercaptoethanol (Sigma). On day 0, ˜2×10^6 cells were then seeded per 100-mm plate in 10 mL media containing 20 ng/mL rmGM-CSF (Peprotech). On day 3, an additional 10 mL fresh cRPMI media containing 20 ng/mL rmGM-CSF was added to each plate. On day 6, half the culture supernatant from each plate was removed and centrifuged, and the pelleted cells resuspended in 10 mL fresh cRPMI with 20 ng/mL rmGM-CSF and added back to the plates. On day 8, all nonadherent cells (representing the BMDC fraction) were collected, pelleted by centrifugation, resuspended in fresh cRPMI media with 20 ng/mL rmGM-CSF, and plated into 24-well dishes. These BMDCs were then treated overnight with or without LPS 100 ng/mL plus the indicated doses of bryo-1. The following day (day 9), these cells were then assayed by flow cytometry or cytokine ELISA.
# (§1) After overnight treatment of BMDCs or mPMs with LPS 100 ng/mL±bryo-1, culture supernatants were collected and cytokine production was assayed using ELISA kits for IL-12 p70 (catalog #88-7121-22), IL-6 (catalog #88-7064-22), and IL-10 (catalog #88-7105-22) purchased from eBioscience, according to manufacturer's instructions. Plates were read at 450 nm on a tabletop plate reader.
# [1] = system: corpus callosum remyelination; test: Cuprizone-induced demyelination, Black-Gold II myelin staining; assay type: in vivo, C57BL/6J mice; conditions: 30 μg/kg IP every other day from re-feeding, day 8 after re-feeding
# Description: Cuprizone-induced demyelination was elicited as described by Baxi et al., Glia (2017) 65:2087-098, with minor modification. Female C57BL/6J mice (8 weeks old) were fed 0.2% cuprizone for 5 weeks to induce demyelination of the corpus callosum and then returned to normal feed. The mice (n=2 per group) were then treated with either bryo-1 (30 μg/kg) or vehicle by IP injection every other day beginning on the first day of re-feeding with normal feed, and the extent of corpus callosum remyelination was assessed by Black-Gold II myelin staining on day 8 after re-feeding.
# [2] = system: mixed glial cultures (MGCs); test: Mixed glial cultures, iNOS / Arg1 immunoblot; assay type: cell-based, C57BL/6J mice
# Description: Mixed glial cultures (MGCs) obtained from the cerebral cortices of P1-P3 neonatal C57BL/6J mice were used, prepared as described by Saura et al., Glia (2003) 44:183-189. Mixed glial cultures were treated with LPS (FIG. 6A) or IL4 (FIG. 6B) ±vehicle or the indicated dose of bryo-1. Expression of iNOS or Argl, respectively, was assessed by immunoblot. Images are representative of 3 independent experiments.
# [3] = system: murine peritoneal macrophages (mPMs); test: mPM cytokine secretion by ELISA; assay type: cell-based; conditions: LPS 100 ng/mL, low-dose bryo-1
# Description: as §1
# Mice aged 8-12 wk were injected intraperitoneally with 2 mL each of 3% sterile thioglycolate (BD Biosciences, catalog #211716) medium. The mice were killed 3-5 d later, and cells were harvested by peritoneal lavage with ice-cold RPMI medium containing 2% FBS (FBS) and 1 unit/mL heparin. The cells were pelleted by centrifugation at 500×g for 8 min, washed in ice-cold RPMI containing 2% FBS alone, pelleted by centrifugation, and resuspended in ice-cold Spinner-modification minimum essential medium (SMEM; Sigma, M8167) supplemented with 10% FBS, 2 mM glutamine, and penicillin-streptomycin (SMEM-complete). Cells were then counted, equal numbers were plated into each well of appropriate cell culture dishes, and the cells were then incubated at 37° C. for 2-4 h to allow macrophage adhesion. Contaminating nonadherent cells were then removed by washing culture dishes five times with ice-cold sterile PBS. Fresh SMEM-complete was then added to the plates, which were incubated overnight at 37° C. […]
# [4] = system: CD4+, Th1 and Th17 lymphocytes in EAE mice; test: Flow cytometry of spinal cord in EAE mice treated from clinical score 1.0; assay type: in vivo, C57BL/6J mice; conditions: day 18 post-immunization (late peak), treatment started at score 1.0
# Description: Mice were killed with pentobarbital and perfused via cardiac puncture with ice-cold HBSS without cations. Brain, spinal cord (collected using hydrostatic pressure), spleen, and lymph node tissue were isolated after perfusion and were mechanically dissociated by passing through 100-μm cell strainers. For CNS tissue, after dissociation, infiltrating mononuclear cells were separated from myelin debris using a 37/70% percoll gradient. After dissociation, spleens were incubated in ACK lysis buffer to remove red blood cell contamination. Cells were counted using a MACSQuant flow cytometer (Miltenyi Biotec).
# For surface marker and intracellular cytokine staining of T cells, the cells were first restimulated with a cell stimulation mixture with protein transport inhibitors (eBioscience, catalog #00-4975-03) for 4 h in cRPMI at 37° C. They then underwent live/dead and surface marker staining as earlier. For intracellular cytokine staining, cells were permeabilized and fixed using either IC Fixation buffer for cytokine analysis (eBioscience, 00-8222-49) or FoxP3 fixation/permeabilization buffer for transcription factor analysis (eBioscience, 00-5521-00) after manufacturer recommended protocol and incubated with specific conjugated antibodies for the specified proteins in permeabilization buffer for 1 h.
# Cells were analyzed by flow cytometry using a MACSQuant flow cytometer (Miltenyi Biotec). Flow data analysis was performed in FlowJo (FlowJo) or FlowLogic (Inivai).
# [5] = phase 2 clinical trials in humans; cited from earlier work
structure (smiles),measurement,setting,value
"CCC/C=C/C=C/C(=O)OC1/C(=C/C(=O)OC)CC2CC(C(C)O)OC(=O)CC(O)CC3CC(OC(C)=O)C(C)(C)C(O)(CC4C/C(=C/C(=O)OC)CC(/C=C/C(C)(C)C1(O)O2)O4)O3 (stereo not shown) [bryo-1, Bryostatin-1]",expression of the oligodendrocyte marker 04,neurospheres,increased expression
same,LPS-induced secretion of IL-12,"LPS-stimulated BMDCs; BMDCs, LPS 100 ng/mL, bryo-1 10 nM, overnight",abrogated
same,secretion of IL-10,"LPS-stimulated BMDCs; BMDCs, LPS 100 ng/mL, overnight",significantly augmented
same,concentration with direct anti-inflammatory effects on DCs and macrophages (as low as),LPS-stimulated BMDCs; DCs and macrophages,10 nM
same,rate of remyelination (extent of Black-Gold II staining),[1],increased the rate of remyelination
same,expression of Argl (M2 marker),"[2]; MGCs treated with IL4, dose as low as 1 nM",dramatically augmented expression
same,induction of iNOS (an M1 marker) by LPS,[2]; MGCs treated with LPS,blocked the induction
same,LPS-induced secretion of IL-6,[3],inhibited
same,LPS-induced secretion of IL-12,[3],inhibited
same,numbers of Th1 cells in spinal cord,[4],significantly diminished numbers
same,numbers of Th17 cells in spinal cord,[4],significantly diminished numbers
same,total CD4+ lymphocytes in spinal cord,[4],near-significant trend (P=0.06) toward decreased
same,safety profile,[5],favorable safety profile
